From US20260345654A1, “2,8-DIHYDROXYQUINOLINE GLUCURONIDE DERIVATIVES WITH ENHANCED PROPERTIES FOR USE AS ANTICANCER, ANTIVIRAL, ANTIMICROBIAL, AND OTHER THERAPEUTIC APPLICATIONS” (priority 2023, published 2026)
pIC50: −log10 of the molar value. Where two headings read alike, the source gives them in different places.

Columns and labels:
A549 cells = assay: In vitro anti-proliferation (CellTiter-Glo, 72 hr), A549; type: cell-based, human
Experimental: (§1) Commercially available 8HQ and freshly synthesized G2-8HQ were prepared for in vitro anti-proliferative studies against the following cell lines with and without the presence of 10 μM Cu(+2): (1) A549: […]; (2) BT-549: epithelial cells from ductal tumor; (3) DU-145: human prostate cancer; (4) PANC-1: pancreatic cancer; (5) SU.86.86: a new adoptive pancreatic cell for immunotherapy studies; (6) RL: non-Hodgkin's lymphoma; (7) LnCAP, Prostate cancer cell line; (8) A431, a squamous cell carcinoma line; and (9) UACC-62 a malignant melanoma cell line.
(§2) With regard to the study protocol used, the objective was to conduct a study of the cytotoxicity of W1469 against several cancer cell lines. In the study protocol, preparations for the A549 (Lung) cell line screen are given as an example. The following materials were used: (1) FBS (2) RPMI-1640 medium supplemented with 10% FBS:’ and (3) A549 Cells. The four samples tested are referred to as Items 1-4 below and were placed at 4 °C upon arrival. These four samples were as follows: • Item 1: Tube A (W1469) (500 uM when FBS added) • Item 2: Tube B (W1469g) (1000 uM when FBS added) • Item 3: Tube C (W1469) • Item 4: Tube D (W1469g)
Items 1 and 2 are sterile ready for the addition of 1 ml of sterile FBS. Final concentrations after addition of 1 ml: 500 μM for Tube A and 1000 μM for Tube B. Items 3 and 4 are described further below. In the protocol, media containing 10% FBS and 20 μM CuCl2 are used in Tubes C and D only. A and B are serially diluted in media with 10% FBS and no added copper.
The protocol method proceeds as follows:
Seed 2, 96-well plates of A549 cells with 5,000 cells per well in a total volume of 50 μL per well. Leave overnight. See plate layout below for which wells to seed with 100 μL of media for media control. The following day, cells are exposed to compounds as described below.
For Items 1 & 2, to make the 500 μM and 1000 μM Stocks of samples 1 and 2 (W1469 and W1469g): Add 1 ml of sterile FBS to each Tube A and Tube B, swirl to mix.
To make appropriate 2× final dilutions of sample 1, Tube A (W1469), the following amounts are used: • 500 μM: 10 mL as supplied • 100 μM: 2 mL 500 μM Sample+8 mL media • 30 μM: 3 mL 100 μM Sample+7 mL media • 10 μM: 3 mL 30 μM Sample+6 mL media • 3 μM: 3 mL 10 μM Sample+7 mL media • 1 μM: 3 mL 3 μM Sample+6 mL media • 0.3 μM: 3 mL 1 μM Sample+7 mL media • 0.1 μM: 3 mL 0.3 μM Sample+6 mL media
To make appropriate 2× final dilutions of sample 2, Tube B (W1469g), the following amounts are used: • 1000 μM: 10 mL as supplied • 300 μM: 3 mL 1000 μM Sample+7 mL media • 100 μM: 3 mL 300 μM Sample+6 mL media • 30 μM: 3 mL 100 μM Sample+7 mL media • 10 μM: 3 mL 30 μM Sample+6 mL media • 3 μM: 3 mL 10 μM Sample+7 mL media • 1 μM: 3 mL 3 μM Sample+6 mL media • 0.3 μM: 3 mL 1 μM Sample+7 mL media
For Items 3 & 4, the following protocol was used to make 1000 uM Stocks of samples 3 and 4 (W1469 and W1469g): • 1: Dissolve 3.37 mg W1469 and excipient (Tube C) in 1 ml RPMI medium without added FBS and copper and swirl briefly until completely dissolved. Add 9 ml of RPMI media containing 10% FBS and 20 uM copper. Swirl to mix. Sterile filter the 10 ml with provided syringes and filters. This is now the 1000 μM stock solution W1469 ready for screening • 2: Dissolve 3.2 mg W1469g and excipient (Tube D) in 1 ml RPMI medium without added FBS and copper and swirl briefly until completely dissolved. […] This is now the 1000 μM stock solution W1469g ready for screening. […]

UACC-62 cells = assay: In vitro anti-proliferation (CellTiter-Glo, 72 hr), UACC-62; type: cell-based
Experimental: as §1, §2
Add 50 μL of above 2× stocks to appropriate wells to expose appropriate cells to the final dilutions of samples. Add 50 μL media to media and cell control wells and 50 μL media mix to vehicle control wells. Cells are exposed for 72 hr. Following a 72 hr exposure to Sample, perform a CTG assay on all remaining plates.
At the end of the 72 hr exposure period, remove plates for CellTiter-Glo assay from 37 °C, 5% CO2 incubator and place on the bench at room temperature for 30 mins. Add 100 μL CellTiter-Glo reagent, mix for 2 mins, followed by a further 10 min incubation at room temperature. Record luminescence. Tables showing the resulting plate layouts are included below/
The other cancer cell lines tested gave similar results. […] Three additional cell lines were also studied and described more completely in Example 9 provided herein. These cell lines included cytotoxicity testing of WT1469 (G2-8HQ) against LnCAP a prostate cancer, A431 a squamous carcinoma cell line and UACC-62 a malignant melanoma cell line. All were complexed in situ with copper immediately prior to testing. The results from these additional cell lines and incorporated in Table 2 and Example 9.

O=C(O)[C@H]1O[C@@H](Oc2ccc3cccc(O)c3n2)[C@H](O)[C@@H](O)[C@@H]1O [G2-8HQ, 8-Hydroxy-2-quinolinyl beta-D-glucopyranosiduronic acid]
cytotoxicity (A549 cells; 1 and 0.5 μM, presence of Cu^+2 ions, wide standard deviation): in some percentage of the screens all the cancer cells were killed at these concentrations | improvement of cytotoxicity in presence of copper (A549 cells; A549, 10 or 20 μM Cu^+2 vs −Cu): 8-18 fold | pIC50 (A549 cells; Homo sapiens, A549, 72 h, −Cu, 72 hr): < 3.30 | pIC50 (UACC-62 cells; +Cu, complexed in situ with copper immediately prior to testing, not based on apo MW, read-out: IC50): 3.77 | pIC50 (UACC-62 cells; Homo sapiens, UACC-62, +Cu, complexed in situ with copper immediately prior to testing, not based on apo MW, read-out: IC50): 3.81 | pIC50 (UACC-62 cells; Homo sapiens, UACC-62, complexed with Cu in situ, * differences with or without excipient, suboptimal complexing, read-out: IC50 (adjusted to MW of copper complex)): 3.82 | pIC50 (UACC-62 cells; complexed with Cu in situ, * differences with or without excipient, suboptimal complexing, listed as W1469, read-out: IC50 (adjusted to MW of copper complex)): 3.78 | Solubility of Cu Complex/aqueous (Solubility; comparison Table 5): excellent | solubility (Solubility; water / aqueous): highly aqueous soluble | solubility (Solubility; water or PBS (at neutral pH)): highly soluble
